{"source": "patent EP1247448A2", "about": "(priority 1998, dated 1999)", "key": {"[1]": {"tested_on": "tomato late blight (TLB), Phytophthora infestans", "type": "in vivo", "conditions": "for TLB obs. % Control: Table 3a"}, "Cucumber Downy Mildew [2]": {"tested_on": "Cucumber Downy Mildew", "assay": "Cucumber downy mildew control on cucumber plants (Example 4)", "type": "in vivo, Pseudoperonospora cubensis", "conditions": "Table 4b"}, "Tomato Late Blight [3]": {"tested_on": "Tomato Late Blight", "type": "in vivo, Phytophthora infestans", "conditions": "Table 4a"}, "Cucumber Downy Mildew [4]": {"tested_on": "Cucumber Downy Mildew", "design": "species or system Pseudoperonospora cubensis", "conditions": "in vivo"}, "[5]": {"tested_on": "Phytophthora infestans on potatoes (PLB)", "type": "in vivo", "conditions": "Table 5b"}, "[6]": {"tested_on": "grape downy mildew, Plasmopara viticola", "assay": "Grape downy mildew control on Delaware grapes (Example 6b)", "type": "in vivo", "conditions": "Table 6b", "protocol": "Tissue culture produced from Delaware grapes were sprayed with the fungicides. Inoculation with grape downy mildew (GDM) spores having a concentration of 40,000 spores ml was conducted 1 day after the application. Plants were placed in a mist chamber for 24 hrs and then moved to a control temperature chamber for the remainder of the test period. Table 6b -"}, "Tomato Late Blight [7]": {"tested_on": "Tomato Late Blight", "type": "in vivo, Phytophthora infestans", "conditions": "Table 6a"}, "Phytophthora capsici": {"tested_on": "Phytophthora capsici", "assay": "Phytophthora capsici colony growth inhibition on potato dextrose agar (Examples 1 and 2)", "type": "cell-based, Phytophthora capsici (ATCC 15399)"}}, "note": "Several values for one entry are separate records, joined by “and”; a condition that tells them apart may be missing. Equal entries are not always repeated. Where two headings read alike, the source gives them in different places."}
{"smiles": "CCO[PH](=O)O", "note": "[Cmpd. E, Fosetyl-aluminum, reference compound]", "values": [{"measurement": "TLB obs. % Control", "setting": "[1]; 0.112 kg ai/ha", "value": 30.9, "unit": "%"}, {"measurement": "TLB obs. % Control", "setting": "[1]; 0.225 kg ai/ha", "value": 14.3, "unit": "%"}, {"measurement": "TLB obs. % Control", "setting": "[1]; 0.45 kg ai/ha", "value": 57.1, "unit": "%"}, {"measurement": "TLB obs. % Control", "setting": "[1]; 0.9 kg ai/ha", "value": 54.8, "unit": "%"}]}
{"smiles": "CCCOC(=O)NCCCN(C)C", "note": "[Cmpd. F, Propamocarb, reference compound]", "values": [{"measurement": "% Control Observed", "setting": "Cucumber Downy Mildew [2]; 0.063 Kg ai/ha", "value": 9, "unit": "%"}, {"measurement": "% Control Observed", "setting": "Cucumber Downy Mildew [2]; 0.125 Kg ai/ha", "value": 0, "unit": "%"}, {"measurement": "% Control Observed", "setting": "Cucumber Downy Mildew [2]; 0.25 Kg ai/ha", "value": 27, "unit": "%"}, {"measurement": "% Control Observed", "setting": "Tomato Late Blight [3]; 0.063 Kg ai/ha", "value": 0, "unit": "%"}, {"measurement": "% Control Observed", "setting": "Tomato Late Blight [3]; 0.125 Kg ai/ha", "value": 3, "unit": "%"}, {"measurement": "% Control Observed", "setting": "Tomato Late Blight [3]; 0.25 Kg ai/ha", "value": 17, "unit": "%"}]}
{"smiles": "O=C1c2ccccc2C(=O)N1SC(Cl)(Cl)Cl", "note": "[Cmpd. G, Folpet, reference compound]", "values": [{"measurement": "Number of Infection Sites", "setting": "Cucumber Downy Mildew [4]", "value": "16 and 22.2 and 19.2"}, {"measurement": "% Control Observed", "setting": "[5]; 0.225 Kg ai/ha", "value": 0, "unit": "%"}, {"measurement": "% Control Observed", "setting": "[5]; 0.45 Kg ai/ha", "value": 3.5, "unit": "%"}]}
{"smiles": "O=[N+]([O-])c1cc(C(F)(F)F)c(Cl)c([N+](=O)[O-])c1Nc1ncc(C(F)(F)F)cc1Cl", "note": "[Cmpd. H, Fluazinam, reference compound]", "values": [{"measurement": "% Control Observed", "setting": "[6]; Cmpd. H 0.006 Kg ai/ha", "value": 52, "unit": "%"}, {"measurement": "% Control Observed", "setting": "Tomato Late Blight [7]; 0.125 Kg ai/ha", "value": 20, "unit": "%"}, {"measurement": "% Infection", "setting": "Tomato Late Blight [7]; 0.125 Kg ai/ha", "value": 64, "unit": "%"}]}
{"smiles": "CCC(C)(NC(=O)c1cc(Cl)c(C)c(Cl)c1)C(=O)CCl", "note": "(stereo not shown) [Compound A, N-[3'-(1'-chloro-3'-methyl-2'-oxopentan)]-3,5-dichloro-4-methylbenzamide]", "values": [{"measurement": "% Control Observed", "setting": "Cucumber Downy Mildew [4]", "value": "74.3% and 84.8% and 98.1%"}, {"measurement": "% Control Observed", "setting": "Cucumber Downy Mildew [2]; 0.006 Kg ai/ha", "value": 56, "unit": "%"}, {"measurement": "% Control Observed", "setting": "Cucumber Downy Mildew [2]; 0.012 Kg ai/ha", "value": 33, "unit": "%"}, {"measurement": "% Control Observed", "setting": "Cucumber Downy Mildew [2]; 0.025 Kg ai/ha", "value": 45, "unit": "%"}, {"measurement": "control of tomato late blight", "setting": "[1]; Example 3a, alone at all rates tested", "value": "≥ 95", "unit": "%"}, {"measurement": "TLB obs. % Control", "setting": "[1]; 0.0125 kg ai/ha", "value": 97.1, "unit": "%"}, {"measurement": "TLB obs. % Control", "setting": "[1]; 0.025 kg ai/ha", "value": 96.7, "unit": "%"}, {"measurement": "TLB obs. % Control", "setting": "[1]; 0.05 kg ai/ha", "value": 96.7, "unit": "%"}, {"measurement": "TLB obs. % Control", "setting": "[1]; 0.1 kg ai/ha", "value": 97.1, "unit": "%"}, {"measurement": "% Inhibition (Observed)", "setting": "Phytophthora capsici; Table 1, Compound A 0.2 ppm, Compound C 0 ppm", "value": 34.1, "unit": "%"}, {"measurement": "% Inhibition (Observed)", "setting": "Phytophthora capsici; Table 1, Compound A 0.3 ppm, Compound C 0 ppm", "value": 52.8, "unit": "%"}, {"measurement": "% Inhibition (Observed)", "setting": "Phytophthora capsici; Table 2, Compound A 0.1 ppm, Compound D 0 ppm", "value": 21.6, "unit": "%"}, {"measurement": "% Inhibition (Observed)", "setting": "Phytophthora capsici; Table 2, Compound A 0.2 ppm, Compound D 0 ppm", "value": 31.0, "unit": "%"}, {"measurement": "% Inhibition (Observed)", "setting": "Phytophthora capsici; Table 2, Compound A 0.3 ppm, Compound D 0 ppm", "value": 44.0, "unit": "%"}, {"measurement": "% Control Observed", "setting": "Tomato Late Blight [3]; 0.006 Kg ai/ha", "value": 23, "unit": "%"}, {"measurement": "% Control Observed", "setting": "Tomato Late Blight [3]; 0.012 Kg ai/ha", "value": 20, "unit": "%"}, {"measurement": "% Control Observed", "setting": "Tomato Late Blight [3]; 0.025 Kg ai/ha", "value": 36, "unit": "%"}, {"measurement": "% Control Observed", "setting": "[6]; Cmpd. A 0.006 Kg ai/ha", "value": 22, "unit": "%"}, {"measurement": "% Control Observed", "setting": "[5]; 0.05 Kg ai/ha", "value": 12, "unit": "%"}, {"measurement": "% Control Observed", "setting": "[5]; 0.10 Kg ai/ha", "value": 16, "unit": "%"}, {"measurement": "% Control Observed", "setting": "Tomato Late Blight [7]; 0.025 Kg ai/ha", "value": 84, "unit": "%"}, {"measurement": "% Infection", "setting": "Tomato Late Blight [7]; 0.025 Kg ai/ha", "value": 13.2, "unit": "%"}]}
{"smiles": "OP(O)O", "note": "[Compound C, Phosphorous Acid, reference compound]", "values": [{"measurement": "% Inhibition (Observed)", "setting": "Phytophthora capsici; Table 1, Compound C 70 ppm, Compound A 0 ppm", "value": 48.3, "unit": "%"}, {"measurement": "% Inhibition (Observed)", "setting": "Phytophthora capsici; Table 1, Compound C 100 ppm, Compound A 0 ppm", "value": 72.1, "unit": "%"}]}
{"smiles": "O.O.O.O.O.O=S(=O)([O-])[O-].[Cu+2]", "note": "[Compound D, CuSO4·5H2O, reference compound]", "values": [{"measurement": "% Inhibition (Observed)", "setting": "Phytophthora capsici; Table 2, Compound D 100 ppm, Compound A 0 ppm", "value": 15.6, "unit": "%"}, {"measurement": "% Inhibition (Observed)", "setting": "Phytophthora capsici; Table 2, Compound D 200 ppm, Compound A 0 ppm", "value": 47.0, "unit": "%"}, {"measurement": "% Inhibition (Observed)", "setting": "Phytophthora capsici; Table 2, Compound D 300 ppm, Compound A 0 ppm", "value": 59.2, "unit": "%"}]}
